Results as given in patent US10758609B2, “Cross-reactive T-cell epitopes of HIV, SIV, and FIV for vaccines in humans and cats” (priority 2015, dated 2020).

Columns and labels:
[1] = system: PBMC from FIV-vaccinated cats; assay: Feline IFNγ ELISpot of PBMC from vaccinated cats; type: cell-based, cat; conditions: for IFNγ production: pilot study, pre-challenge; for IFNγ response rate: MAP Trial 2
Protocol: IFNγ and IL2 ELISpot analyses were performed using feline IFNγ ELISpot and feline IL2 ELISpot kits (R&D Systems, Cat# SEL764 and SEL1890) as described. The threshold is defined as ≥50 spot forming units (SFU) per 1×10^6 PBMC when counted with MVS ELISpot Reader (MVS Pacific, LLC). Each result is an average of the duplicate samples after subtraction of the average value of the media controls.
Concurrently, the overlapping peptide pools of FIV structural/enzyme proteins were used to stimulate PBMC and T cells from FIV-vaccinated cats. These cats were vaccinated with prototype dual-subtype FIV vaccine which was the prototype to our commercial FIV vaccine (Coleman et al., 2014). The feline assays (Example 1) equivalent to those of human assays (Sanou et al., 2013; Roff et al., 2015) were used except for ICS analysis. In place of ICS for cytolysin/cytotoxins, IL2 ELISpot analysis was performed. […] The results for FIV-vaccinated cats included IFNγ and IL2 productions and CD3^+CD4+ and CD3^+CD8^+ T-cell proliferation (Table 9, the second set of results).
The feline IFNγ and L2 ELISpot analyses of PBMC to FIV MAPs and peptides were performed as previously described (Abbott et al. (2012)) using feline IFNγ modular kit (R&D Systems, Minneapolis, Minn.) and feline IL2 modular kit (R&D Systems). All results shown in the figures (FIGS. 8A-1, 8B-1, 8A-2, 8B-2, 8A-3, 8B-3) are after subtracting the average value of the results from all control cats.
The second parameter evaluated was the ability of the peripheral blood mononuclear cells (PBMC) from vaccinated and control cats to produce IL2 and interferon-γ (IFNγ) proteins in responses to FIV MAPs and peptides (FIGS. 8A-1, 8A-2, 8A-3, 8B-1, 8B-2, 8B-3) using feline IL2 and IFNγ ELISpot assays (Aranyos et al. (2016); Abbott et al. (2012)). IL2 enhances the proliferation of FIV-specific CD4^+ T cells and CD8^+ T cells. IFNγ is known enhance the FIV-specific CTL activities in vaccinated cats (Abbas et al. (2015)).

PBMC from HIV^+ subjects = assay: IFNγ ELISpot of PBMC from HIV+ human subjects; type: cell-based
Protocol: The overlapping peptide pools of FIV and HIV-1 structural and enzyme proteins were used to stimulate the […] (PBMC) and the T cells from HIV^+ subjects as previously described for epitope mapping of HIV-1 and FIV p24 and reverse transcriptase (RT) (Sanou et al., 2013; Roff et al., 2015). The individual peptides in those peptide pools with positive responses to either interferon-γ (IFNγ) production and/or T-cell proliferation were determined with IFNγ ELISpot analysis and CFSE-based CD3^+CD4^+ and CD3^+CD8^+ T-cell proliferation analyses followed by the FACS-based intracellular staining (ICS) for cytolysin (perforin) and cytotoxin (granzyme A [GrzA] and GrzB) (Sanou et al., 2013; Roff et al., 2015). Besides viral p24 and RT proteins, the identical approach was used to identify anti-HIV/FIV T-cell epitopes on viral matrix (MA), nucleocapsid (NC), protease (PR), RNAase, integrase (IN), surface envelope (SU Env), and transmembrane envelope (TM Env) (FIG. 12).
Since our goal is to develop HIV vaccine for human use, the HIV peptides (Table 10) counterpart of the cross-reactive FIV peptides shown in Table 9 were tested with PBMC and T cells from HIV^+ subjects. The immune functions analyzed were human IFNγ production by ELISpot, cytolysin/cytotoxin production by ICS, and CFSE-based proliferation of CD3^+CD4^+ and CD3^+CD8^+ T cells from HIV^+ subjects (Table 10, the first set of results). In addition, the Los Alamos National Laboratories (LANL) database was used to identify the HLA allele(s) of the HIV epitope sequence with CTL activity that can exist within the sequence of the conserved counterpart HIV peptide (Table 9, LANL CTL). The bold HLA class-I supertypes and the bold 2-digit alleles are those on the “Optimal CD8^+ CTL Epitopes” list and those without bold are alleles for potential CTL epitope. […] The HLA class II such as HLA-DRB1 has yet to be fully classified into supertypes, and therefore the 4-digit resolution nomenclatures for the HLA-DRB1 alleles are shown.
In addition, these peptides were also analyzed for IFNγ production, CD4^+ and CD8^+ T-cell proliferation, and cytolysin (perforin) and cytotoxin (granzyme A (GrzA) and GrzB)) mRNA production of PBMC or T cells from 8-30 HIV^+ human subjects. The frequency of responders is based on the individual responses of the vaccinated cats or HIV^+ human subjects after subtraction of the average of the responses of PBMC or T cells from 6-8 non-vaccinated cats or 8-20 HIV-negative human subjects.
The threshold for positive IFNγ and IL2 ELISpot responses is ≥50 spot-forming units (SFU) per 10^6 PBMC. The threshold for CFSE-based CD4^+ and CD8^+ T-cell proliferation is ≥2% CD4^+ T-cell CFSE^low or CD8^+ T-cell CFSE^low. The threshold of FACS-based intracellular cytokine staining (ICS) is ≥0.2%. […] The nine FIV peptides in black were used in the current MAP vaccine trial, whereas the 13 peptides in blue were not used. […] The MAPs and their corresponding peptide(s) were also tested for their ability to enhance or suppress in vitro FIV infection of feline PBMC (E/S of peptides and E/S of MAP).
The counterpart HIV-1 peptides of the FIV peptides were also tested for immunogenicity using PBMC and T cells from HIV^+ human subjects. […] The HRT7-1 and HRT7-2 were also tested with cells from HIV^+ subjects on ART. The threshold for positive IFNγ ELISpot response is ≥75 spot-forming units (SFU) per 10^6 PBMC. The threshold for CFSE-based CD4^+ (CD4^+ T) and CD8^+ (CD8^+ T) T-cell proliferation is ≥2% CD4^+ T-cell CFSE^low or CD8^+ T-cell CFSE^low. The threshold of intracellular cytokine staining (ICS) of FACS-based cytolysin (perforin) and cytotoxins (granzymes A and B) in CD4^+ T cells (CyCD4) and CD8^+ T cells (CyCD8) is ≥0.2%.

[2] = FIV epitope peptide, FIV-vaccinated cats
[3] = FIV peptides, FIV-vaccinated cats (prototype dual-subtype vaccine)

Sequence	IFNγ, frequency of responders [1, 2]	IFNγ, frequency of responders [1, 3]	IFNγ, frequency of responders (PBMC from HIV^+ subjects; FIV epitope peptide)	IFNγ, frequency of responders (PBMC from HIV^+ subjects; FIV peptides)	IFNγ production ([1]; cat OCA) [SFU]	IFNγ production ([1]; cat SBA) [SFU]	IFNγ response rate ([1]; 6 weeks post-3rd vaccination) [%]	IFNγ response rate ([1]; SQ and ID MAP-vaccinated cats, 6 weeks post-2nd vaccination) [%]
AGLRQSLEQYQVVKQ [FSU4]	+++ (41%-54% (+++))	+++ (40.1%-54% (+++))	— (0%-1.4% (—))	— (0%-1.4%(—))	–	–	–	–
KFLYTAFAMQELR [FTM4-3]	++++ (>54% (++++))	++++ (>54% (++++))	— (0%-1.4% (—))	— (0%-1.4%(—))	–	–	–	–
KKKSGKWRMLIDFRV [FRT3-3]	–	± (1.5%-12.4% (±))	++++ (>54% (++++))	++++ (>54% (++++))	–	–	–	–
LLLILCLPTLVDCIRN [FTM8(20)]	++ (26%-40% (++))	++ (25.1%-40% (++))	— (0%-1.4% (—))	— (0%-1.4%(—))	–	–	–	–
PTDMATLIMAAPGCA [Fp4-3]	++ (26%-40% (++))	++ (25.1%-40% (++))	— (0%-1.4% (—))	— (0%-1.4%(—))	161	60	–	–
WRMLIDFRVLNKL [FRT3-4]	++ (26%-40% (++))	++ (25.1%-40% (++))	— (0%-1.4% (—))	— (0%-1.4%(—))	–	–	64.3	14.3
